Conditions: Liquid, Hot wire method

FC(F)(F)/C=C/Cl [(E)-1-chloro-3,3,3-trifluoroprop-1-ene]
Conditions	thermal conductivity [W/m/K]
203.56 K, 10316 kPa	0.1156
203.65 K, 10337 kPa	0.1151
203.67 K, 219 kPa	0.1135
203.67 K, 10365 kPa	0.116
203.68 K, 5190 kPa	0.1132
203.68 K, 10370 kPa	0.1166
203.76 K, 231 kPa	0.113
203.76 K, 10344 kPa	0.1159
203.77 K, 5194 kPa	0.1133
203.77 K, 10372 kPa	0.1156
203.91 K, 10339 kPa	0.1163
204.02 K, 228 kPa	0.1135
204.02 K, 5185 kPa	0.114
204.02 K, 10301 kPa	0.1153
204.02 K, 10366 kPa	0.1154
204.02 K, 10378 kPa	0.1158
204.12 K, 10382 kPa	0.1152
204.13 K, 232 kPa	0.1125
204.13 K, 5176 kPa	0.1137
204.13 K, 10374 kPa	0.1153
204.3 K, 10296 kPa	0.1148
204.4 K, 223 kPa	0.1124
204.4 K, 5171 kPa	0.1142
204.4 K, 10360 kPa	0.1158
204.41 K, 10375 kPa	0.1154
204.43 K, 10300 kPa	0.1153
204.53 K, 10368 kPa	0.1152
204.54 K, 5176 kPa	0.1138
204.54 K, 10353 kPa	0.115
204.55 K, 227 kPa	0.1121
204.71 K, 10305 kPa	0.115
204.81 K, 10351 kPa	0.1146
204.81 K, 10361 kPa	0.1153
204.82 K, 232 kPa	0.1125
204.82 K, 5179 kPa	0.1141
204.88 K, 10317 kPa	0.1155
204.97 K, 10365 kPa	0.1148
204.98 K, 5182 kPa	0.1135
204.98 K, 10343 kPa	0.1151
204.99 K, 223 kPa	0.1121
205.17 K, 10310 kPa	0.1155
205.25 K, 10392 kPa	0.1152
205.26 K, 10349 kPa	0.1152
205.27 K, 5170 kPa	0.1139
205.29 K, 230 kPa	0.1124
205.36 K, 10304 kPa	0.1149
205.44 K, 10383 kPa	0.1147
205.45 K, 10380 kPa	0.1147
205.46 K, 5164 kPa	0.1134
205.48 K, 239 kPa	0.1121
222.19 K, 65394 kPa	0.1242
222.21 K, 54365 kPa	0.1216
222.27 K, 44671 kPa	0.1193
222.28 K, 65396 kPa	0.1238
222.3 K, 35555 kPa	0.1171
222.32 K, 26424 kPa	0.1148
222.32 K, 54366 kPa	0.1215
222.35 K, 17783 kPa	0.1123
222.37 K, 44672 kPa	0.1196
222.39 K, 449 kPa	0.1078
222.39 K, 8723 kPa	0.1103
222.4 K, 35559 kPa	0.1171
222.42 K, 26428 kPa	0.1148
222.45 K, 17781 kPa	0.1124
222.49 K, 8727 kPa	0.1099
222.5 K, 449 kPa	0.1068
222.54 K, 65394 kPa	0.1248
222.57 K, 54367 kPa	0.1222
222.62 K, 44672 kPa	0.1196
222.67 K, 35561 kPa	0.1177
222.69 K, 54366 kPa	0.1219
222.7 K, 26430 kPa	0.1145
